Results on two molecules are retold here after paper PMC10803289, “Transport and inhibition mechanism of the human SGLT2–MAP17 glucose transporter” (Nature Structural & Molecular Biology, 2023).

In one test the target is T1, hSGLT2 D201A (Homo sapiens, UniProt P31639, D201A).
T1 sequence (P31639 1-672 D201A): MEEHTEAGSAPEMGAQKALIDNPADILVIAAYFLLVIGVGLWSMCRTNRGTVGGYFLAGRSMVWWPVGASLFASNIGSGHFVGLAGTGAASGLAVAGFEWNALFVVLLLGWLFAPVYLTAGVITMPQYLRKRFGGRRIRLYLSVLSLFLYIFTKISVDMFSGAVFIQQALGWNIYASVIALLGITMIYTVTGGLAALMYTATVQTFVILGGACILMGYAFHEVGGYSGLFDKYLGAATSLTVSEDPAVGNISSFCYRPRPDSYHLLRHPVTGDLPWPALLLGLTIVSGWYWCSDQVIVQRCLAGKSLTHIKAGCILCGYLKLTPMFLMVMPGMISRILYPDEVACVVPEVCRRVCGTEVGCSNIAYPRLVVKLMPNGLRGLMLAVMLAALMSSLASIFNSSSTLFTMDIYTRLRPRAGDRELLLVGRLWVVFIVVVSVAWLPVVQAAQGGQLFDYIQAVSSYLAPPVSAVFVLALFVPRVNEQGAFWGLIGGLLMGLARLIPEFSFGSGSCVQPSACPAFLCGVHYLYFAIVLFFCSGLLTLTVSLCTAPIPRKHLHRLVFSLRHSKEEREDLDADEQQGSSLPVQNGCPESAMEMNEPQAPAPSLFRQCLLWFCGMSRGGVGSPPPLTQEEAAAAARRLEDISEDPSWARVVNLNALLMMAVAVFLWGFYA
T1 sequence (Q13113 1-114 partner): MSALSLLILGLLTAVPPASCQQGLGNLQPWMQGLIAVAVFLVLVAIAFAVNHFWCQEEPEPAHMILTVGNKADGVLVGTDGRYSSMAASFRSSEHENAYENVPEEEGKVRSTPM
Kind of test: SGLT2 inhibitor-binding assay (AS-MS), crude membrane, D201A mutant. The arrangement: expressed in transfected cells; host or cells: Expi293 cells, crude membrane fraction. Conditions: 30 nM canagliflozin; D201A; replicates. The text has this: (§1) hSGLT2 complementary DNA and human MAP17 cDNA were synthesized and codon-optimized for expression in human cell lines. Both cDNAs were cloned into the pcDNA3.4 vector. The hSGLT2 sequence was fused with an N-terminal signal sequence from human trypsinogen 1, a His10 tag, and sfGFP, followed by a human rhinovirus 3C protease (HRV3C protease) recognition site. Point mutations were introduced into this construct using site-directed mutagenesis. These plasmids were utilized for all experimental procedures conducted in this study.
To examine the inhibition of binding to the crude membrane, mammalian Expi293 cells were co-transfected with the hMAP17 and hSGLT2 plasmids, as described. […] The extract solution from the filter plate was diluted with water containing candesartan as an internal standard, and the SGLT2 inhibitor concentration was quantified via LC–MS/MS.
Nonspecific binding was measured using the crude membrane of nontransfected Expi293 cells. Specific binding was calculated by subtracting nonspecific binding from the binding of hSGLT2-expressing cells. Specific binding was normalized to hSGLT2 protein expression levels, measured via FSEC. The equilibrium dissociation constant (Kd) and maximum number of binding sites (Bmax) were calculated via nonlinear regression in GraphPad Prism 8.4.3. […]

For a further test, the system named is SGLT2. Further details: method as in literature. Conditions: referee comment in peer review file; ref literature; cited from earlier work.
In another test the target is T2, hSGLT2 S74A (Homo sapiens, UniProt P31639, S74A).
T2 construct: expressed in transfected cells; host or cells: Expi293 cells, crude membrane fraction
Kind of test: cell-based.
Description: as §1
HEK293 cells (ECACC 85120602) were maintained in Dulbecco’s modified Eagle medium (Gibco) supplemented with 10% fetal bovine serum (Thermo Scientific), 2 mM L-glutamine, 100 U ml^−1 benzylpenicillin and 100 µg ml^−1 streptomycin at 37 °C in a humidified atmosphere (5% CO2 in air). HEK293 cells were seeded at 1.0 × 10^5 cells per well in poly-L-lysine coated 24-well plates. […]
Cell lysates were deproteinized by adding acetonitrile containing candesartan as the internal standard. The α-MG concentration was quantified via liquid chromatography–tandem mass spectrometry (LC–MS/MS) using the internal standard method.
Cellular protein content was determined using a bicinchoninic acid protein assay kit (Thermo Fisher Scientific). The uptake of α-MG was expressed as the ratio of concentration in the cells (in pmol per mg protein) to concentration in the medium (in pmol μl^−1); this is known as the cell-to-medium ratio (in μl per mg protein).
In the inhibition study, the cell-to-medium ratio of cells transfected with the empty vector was used as the background. The specific α-MG uptake was calculated by subtracting this background from the total cell-to-medium ratio and normalized to the uptake achieved without the inhibitor. IC50 was calculated via nonlinear regression using GraphPad Prism 8.4.3.
The concentrations of the extract solution from the filter plate and of the cell lysate were quantified using a tandem mass spectrometry QTRAP6500 System (SCIEX) coupled with an ACQUITY UPLC system (Waters) using the internal standard method. […]

Molecules are shown by their SMILES. Where “and” joins values, the source holds several entries; their conditions need not be identical. Equal entries are not always repeated.

T2 sequence (P31639 whole entry S74A, one chain of several): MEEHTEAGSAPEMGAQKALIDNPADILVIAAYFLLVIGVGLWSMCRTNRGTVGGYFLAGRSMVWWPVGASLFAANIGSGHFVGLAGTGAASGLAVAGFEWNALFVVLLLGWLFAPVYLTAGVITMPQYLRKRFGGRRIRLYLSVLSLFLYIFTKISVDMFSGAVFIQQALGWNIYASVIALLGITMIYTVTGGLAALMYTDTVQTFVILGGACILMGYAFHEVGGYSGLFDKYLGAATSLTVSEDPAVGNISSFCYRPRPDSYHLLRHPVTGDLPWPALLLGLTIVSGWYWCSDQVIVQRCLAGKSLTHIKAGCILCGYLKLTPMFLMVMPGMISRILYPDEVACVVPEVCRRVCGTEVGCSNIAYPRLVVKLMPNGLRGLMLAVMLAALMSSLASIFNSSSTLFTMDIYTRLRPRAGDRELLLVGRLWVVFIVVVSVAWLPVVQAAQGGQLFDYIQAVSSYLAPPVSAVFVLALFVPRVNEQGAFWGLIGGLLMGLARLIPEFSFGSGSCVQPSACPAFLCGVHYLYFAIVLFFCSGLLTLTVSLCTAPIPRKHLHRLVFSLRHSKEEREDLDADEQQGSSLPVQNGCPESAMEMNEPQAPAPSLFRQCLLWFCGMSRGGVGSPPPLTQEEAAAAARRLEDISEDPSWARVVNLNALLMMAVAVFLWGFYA

On to `Cc1ccc([C@@H]2O[C@H](CO)[C@@H](O)[C@H](O)[C@H]2O)cc1Cc1ccc(-c2ccc(F)cc2)s1` [Canagliflozin], for which the “Canagliflozin binding (% of WT)” value at hSGLT2 D201A was 127.94 % of WT and 124.539 % of WT and 148.349 % of WT. Further, the IC50 in the test with SGLT2 is about 2.7 nM.

On to `O=C(CCc1ccc(O)cc1)c1c(O)cc(O)cc1O[C@@H]1O[C@H](CO)[C@@H](O)[C@H](O)[C@H]1O` [Phlorizin], for which the remaining activity at 0.003 µM at hSGLT2 S74A (HEK293, read-out: α-MG uptake (% of control), Phlorizin 3 nM) turned out to be 95.3%. The remaining activity at 0.03 µM on hSGLT2 S74A (HEK293, read-out: α-MG uptake (% of control), Phlorizin 30 nM) is 80.6%. On hSGLT2 S74A (HEK293, read-out: α-MG uptake (% of control), Phlorizin 100 nM), the remaining activity at 0.1 µM was 70.1%.

As usually defined, the IC50 is the concentration at which inhibition is half-maximal.
